According to ChEMBL document CHEMBL1201862, “PubChem BioAssay data set” (2004):
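Dose response: 5 concentrations. Exposure: 48 h. Format: 96-well plates. Endpoint: linear interpolation; highest concentration if not reached. GI50 marks 50% less growth.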 The source made the active and inactive calls. No stated cut-off is given here; in the data, active = GI50 up to about 1.1 µM and inactive = higher.

How the values were obtained:
Test in all cases: NCI tumour cell line growth inhibition, 48 h
HL-60 = tested on: HL-60
SK-OV-3 = tested on: SK-OV-3
M14 = tested on: M14
CCRF-CEM = tested on: CCRF-CEM
NCI-H460 = tested on: NCI-H460
MDA-N = tested on: MDA-N
MDA-MB-435 = tested on: MDA-MB-435
NCI-H522 = tested on: NCI-H522
EKVX = tested on: EKVX
TK-10 = tested on: TK-10
Hs-578T = tested on: Hs-578T
OVCAR-4 = tested on: OVCAR-4
HCT-116 = tested on: HCT-116
MDA-MB-231 = tested on: MDA-MB-231
MOLT-4 = tested on: MOLT-4
UACC-257 = tested on: UACC-257
LOX IMVI = tested on: LOX IMVI
NCI-H23 = tested on: NCI-H23
A549 = tested on: A549
SK-MEL-2 = tested on: SK-MEL-2
RPMI-8226 = tested on: RPMI-8226
A498 = tested on: A498
SR = tested on: SR
SNB-19 = tested on: SNB-19
OVCAR-8 = tested on: OVCAR-8
K562 = tested on: K562
ACHN = tested on: ACHN
MCF7 = tested on: MCF7
T47D = tested on: T47D
U-251 = tested on: U-251
SN12C = tested on: SN12C
UACC-62 = tested on: UACC-62
DU-145 = tested on: DU-145
786-0 = tested on: 786-0
KM12 = tested on: KM12
UO-31 = tested on: UO-31
SF-539 = tested on: SF-539
BT-549 = tested on: BT-549
SW-620 = tested on: SW-620
COLO 205 = tested on: COLO 205
HOP-92 = tested on: HOP-92
CAKI-1 = tested on: CAKI-1
OVCAR-3 = tested on: OVCAR-3
SF-295 = tested on: SF-295
HCT-15 = tested on: HCT-15
SK-MEL-28 = tested on: SK-MEL-28
HOP-62 = tested on: HOP-62
Malme-3M = tested on: Malme-3M
NCI-H226 = tested on: NCI-H226
HCC 2998 = tested on: HCC 2998
RXF 393 = tested on: RXF 393
SK-MEL-5 = tested on: SK-MEL-5
NCI/ADR-RES = tested on: NCI/ADR-RES
SF-268 = tested on: SF-268
OVCAR-5 = tested on: OVCAR-5
PC-3 = tested on: PC-3
IGROV-1 = tested on: IGROV-1
SNB-75 = tested on: SNB-75
HT-29 = tested on: HT-29

## CC(=O)Nc1ccc(N2C(=O)/C(=C\c3cccc(Oc4ccccc4)c3)SC2c2ccccc2)cc1 (configuration not stated)
HL-60
  GI50: 25.4 µM (inactive)
SK-OV-3
  GI50: 16.1 µM (inactive)
M14
  GI50: 32.3 µM (inactive)
CCRF-CEM
  GI50: 17.3 µM (inactive)
NCI-H460
  GI50: 50.7 µM (inactive)
MDA-N
  GI50: 18.9 µM (inactive)
MDA-MB-435
  GI50: 32.5 µM (inactive)
NCI-H522
  GI50: 23.2 µM (inactive)
EKVX
  GI50: 42.7 µM (inactive)
TK-10
  GI50: 34.4 µM (inactive)
Hs-578T
  GI50: 12.7 µM (inactive)
OVCAR-4
  GI50: 32.4 µM (inactive)
HCT-116
  GI50: 18.1 µM (inactive)
MDA-MB-231
  GI50: 32.6 µM (inactive)
MOLT-4
  GI50: 27.9 µM (inactive)
UACC-257
  GI50: 35 µM (inactive)
LOX IMVI
  GI50: 17.2 µM (inactive)
NCI-H23
  GI50: 26.1 µM (inactive)
A549
  GI50: 27.1 µM (inactive)
SK-MEL-2
  GI50: 30.4 µM (inactive)
RPMI-8226
  GI50: 24.7 µM (inactive)
A498
  GI50: 50.1 µM (inactive)
SR
  GI50: 21 µM (inactive)
SNB-19
  GI50: 19.8 µM (inactive)
OVCAR-8
  GI50: 17.1 µM (inactive)
K562
  GI50: 33.1 µM (inactive)
ACHN
  GI50: 71 µM (inactive)
MCF7
  GI50: 21 µM (inactive)
T47D
  GI50: 54.1 µM (inactive)
U-251
  GI50: 14.7 µM (inactive)
SN12C
  GI50: 26.8 µM (inactive)
UACC-62
  GI50: 22.4 µM (inactive)
DU-145
  GI50: 27.5 µM (inactive)
786-0
  GI50: 37.8 µM (inactive)
KM12
  GI50: 24.4 µM (inactive)
UO-31
  GI50: 82.6 µM (inactive)
SF-539
  GI50: 19.3 µM (inactive)
BT-549
  GI50: 33.3 µM (inactive)
SW-620
  GI50: 30.8 µM (inactive)
COLO 205
  GI50: 70.3 µM (inactive)
HOP-92
  GI50: 16.6 µM (inactive)
CAKI-1
  GI50: 66.4 µM (inactive)
OVCAR-3
  GI50: 25.5 µM (inactive)
SF-295
  GI50: 38.5 µM (inactive)
HCT-15
  GI50: 78.5 µM
SK-MEL-28
  GI50: 27.4 µM (inactive)
HOP-62
  GI50: 22.6 µM (inactive)
Malme-3M
  GI50: 28 µM (inactive)
NCI-H226
  GI50: 22 µM (inactive)
HCC 2998
  GI50: > 100 µM (inactive)
RXF 393
  GI50: 30.4 µM (inactive)
SK-MEL-5
  GI50: 23.7 µM (inactive)
NCI/ADR-RES
  GI50: 29.5 µM (inactive)
SF-268
  GI50: 50.6 µM (inactive)
OVCAR-5
  GI50: > 100 µM (inactive)

## O=C(Nc1nnc(-c2c(Cl)c(Cl)c(Cl)c(Cl)c2-c2nc3cc(C(=O)c4ccccc4)ccc3[nH]2)o1)c1ccccc1
PC-3
  GI50: 13 µM (inactive)
HL-60
  GI50: 11.4 µM (inactive)
SK-OV-3
  GI50: 18.9 µM (inactive)
M14
  GI50: 15.4 µM (inactive)
CCRF-CEM
  GI50: 8.36 µM (inactive)
MDA-N
  GI50: 3.19 µM (inactive)
MDA-MB-435
  GI50: 3.89 µM (inactive)
EKVX
  GI50: 17.9 µM (inactive)
TK-10
  GI50: 21.8 µM (inactive)
OVCAR-4
  GI50: 21 µM (inactive)
HCT-116
  GI50: 23.3 µM (inactive)
MDA-MB-231
  GI50: 17.7 µM (inactive)
MOLT-4
  GI50: 13.7 µM (inactive)
UACC-257
  GI50: 23.2 µM (inactive)
LOX IMVI
  GI50: 15.1 µM (inactive)
NCI-H23
  GI50: 18.9 µM (inactive)
IGROV-1
  GI50: 13.6 µM (inactive)
A549
  GI50: 14.9 µM (inactive)
SK-MEL-2
  GI50: 17.7 µM (inactive)
RPMI-8226
  GI50: 12.4 µM (inactive)
A498
  GI50: 18.2 µM (inactive)
SR
  GI50: 4.9 µM (inactive)
SNB-19
  GI50: 15.2 µM (inactive)
OVCAR-8
  GI50: 26.9 µM (inactive)
K562
  GI50: 5.78 µM (inactive)
ACHN
  GI50: 19.5 µM (inactive)
MCF7
  GI50: 10.9 µM (inactive)
T47D
  GI50: 16.4 µM (inactive)
U-251
  GI50: 13.6 µM (inactive)
SN12C
  GI50: 15.3 µM (inactive)
DU-145
  GI50: 17.5 µM (inactive)
786-0
  GI50: 16.8 µM (inactive)
SNB-75
  GI50: 15.1 µM (inactive)
KM12
  GI50: 23.2 µM (inactive)
UO-31
  GI50: 31.8 µM (inactive)
SF-539
  GI50: 11.5 µM (inactive)
BT-549
  GI50: 23.5 µM (inactive)
SW-620
  GI50: 19.9 µM (inactive)
COLO 205
  GI50: 12.2 µM (inactive)
HOP-92
  GI50: 15.5 µM (inactive)
CAKI-1
  GI50: 32.3 µM (inactive)
HT-29
  GI50: 23.8 µM (inactive)
OVCAR-3
  GI50: 15 µM (inactive)
SF-295
  GI50: 9.46 µM (inactive)
HCT-15
  GI50: 9.98 µM
SK-MEL-28
  GI50: 12.1 µM (inactive)
HOP-62
  GI50: 10.4 µM (inactive)
NCI-H226
  GI50: 16.7 µM (inactive)
RXF 393
  GI50: 12.3 µM (inactive)
SK-MEL-5
  GI50: 5.07 µM (inactive)
NCI/ADR-RES
  GI50: 14 µM (inactive)
OVCAR-5
  GI50: 26.4 µM (inactive)

## CNC(=S)N1CCN(C(C)=O)C1=S
HL-60
  GI50: 47.8 µM (inactive)
SK-OV-3
  GI50: 66.8 µM (inactive)
M14
  GI50: 42.4 µM (inactive)
CCRF-CEM
  GI50: 46.5 µM (inactive)
NCI-H460
  GI50: 87.9 µM (inactive)
MDA-N
  GI50: 51.8 µM (inactive)
MDA-MB-435
  GI50: 22.2 µM (inactive)
NCI-H522
  GI50: 45.1 µM (inactive)
EKVX
  GI50: 25.1 µM (inactive)
TK-10
  GI50: > 100 µM (inactive)
Hs-578T
  GI50: 23.6 µM (inactive)
OVCAR-4
  GI50: 6.56 µM (inactive)
HCT-116
  GI50: > 100 µM (inactive)
MDA-MB-231
  GI50: 4.27 µM (inactive)
MOLT-4
  GI50: 30.8 µM (inactive)
UACC-257
  GI50: 70.6 µM (inactive)
LOX IMVI
  GI50: 76.7 µM (inactive)
NCI-H23
  GI50: 27.7 µM (inactive)
IGROV-1
  GI50: 44.9 µM (inactive)
A549
  GI50: 38.8 µM (inactive)
SK-MEL-2
  GI50: 2.25 µM (inactive)
A498
  GI50: 35.6 µM (inactive)
SR
  GI50: 23.7 µM (inactive)
OVCAR-8
  GI50: 92.5 µM (inactive)
K562
  GI50: 54.2 µM (inactive)
ACHN
  GI50: > 100 µM (inactive)
MCF7
  GI50: 42 µM (inactive)
T47D
  GI50: 19.5 µM (inactive)
U-251
  GI50: 4.02 µM (inactive)
SN12C
  GI50: 57.7 µM (inactive)
UACC-62
  GI50: 43.7 µM (inactive)
DU-145
  GI50: > 100 µM (inactive)
786-0
  GI50: > 100 µM (inactive)
SNB-75
  GI50: 26.5 µM (inactive)
KM12
  GI50: 56.9 µM (inactive)
UO-31
  GI50: 50.7 µM (inactive)
SF-539
  GI50: 20.4 µM (inactive)
BT-549
  GI50: 12.9 µM (inactive)
SW-620
  GI50: 86.5 µM (inactive)
COLO 205
  GI50: 97.5 µM (inactive)
HOP-92
  GI50: 82.2 µM (inactive)
CAKI-1
  GI50: 50 µM (inactive)
HT-29
  GI50: 67.8 µM (inactive)
OVCAR-3
  GI50: 35.4 µM (inactive)
SF-295
  GI50: 25.4 µM (inactive)
HCT-15
  GI50: 34.4 µM
SK-MEL-28
  GI50: 29.2 µM (inactive)
HOP-62
  GI50: 70.5 µM (inactive)
Malme-3M
  GI50: 12.7 µM (inactive)
NCI-H226
  GI50: 22.4 µM (inactive)
HCC 2998
  GI50: 31.9 µM (inactive)
SK-MEL-5
  GI50: 71.4 µM (inactive)
NCI/ADR-RES
  GI50: 69.3 µM (inactive)
SF-268
  GI50: 54.8 µM (inactive)
OVCAR-5
  GI50: > 100 µM (inactive)
